Test results reported in patent US20070225253A1, “Use of a trioxopyrimidine for the treatment and prevention of bronchial inflammatory diseases” (priority 2004, published 2007).

System: allergen-induced airway inflammation
Experiment: Mouse model of asthma (OVA), intraperitoneal injection of Compound I
Format: in vivo, mice
Conditions: 3.75 to 30 mg/kg
Protocol: In order to study the modulation of airway inflammation by intraperitoneal injection of Compound I, mice were sensitized with 10 μg ovalbumin alumin-adsorbed (aluminject, perbio, Erembodegem, Belgium) injected intraperitonealy at days 0 and 7 and were subsequently exposed to OVA 1% or PBS aerosols for 30 minutes from day 21 to 24. Intraperitoneal injections were performed 30 min before OVA inhalations. The different injected formulations were: cremophor 10%-DMSO 10%-PBS 80%- Compound I30 mg/kg (suspension); cremophor 10%-DMSO 10%-PBS 80%- Compound I3.75 mg/kg (solution); HPβCD 200 mM Compound I 7.5 mg/kg (solution); HPβCD 200 mM. […]
Twenty-four hours after the last allergen exposure, the bronchial hyper responsiveness was determined by measuring the Penh using a barometric plethysmograph as proposed by Hamelmann, E., et al., Am. […] The Penh was measured at baseline and 5 min after the inhalation of increasing doses (25, 50, 75 and 100 mM) of methacholine (Mch).
Immediately after the assessment of airway responsiveness, mice were sacrificed and 1 ml of PBS free of ionised calcium and magnesium but supplemented with 0.05 mM sodium EDTA was instilled 4 times via a tracheal cannula and recovered by gentle manual aspiration. […] A value from 0 to 3 per criteria was adjudged to each tissue section scored. […]

**Q.** How did the peribronchial inflammation scores (equal efficacy of all tested formulations) turn out when `O=C1NC(=O)C(c2ccc(-c3ccccc3)cc2)(N2CCN(c3ccc([N+](=O)[O-])cc3)CC2)C(=O)N1` [Compound I, 5-Biphenyl-4-yl-5-[4-(4-nitro-phenyl)-piperazin-1-yl]pyrimidine-2,4,6-trione] was run?
**A.** significantly lowered

**Q.** And the “allergen-induced airway eosinophilic inflammation in BAL” value (solution or precipitate, vs placebo)?
**A.** lowered
